From paper PMC11620503 (Antimicrobial Agents and Chemotherapy, 2024)
In brackets after ≈: the same amount, converted by molar mass. Where two headings read alike, the source gives them in different places.

Legend:
[1] = test system: E. coli CDC-435 (NDM-1), PBP3 mutations; assay: MIC, broth microdilution; assay type: cell-based; settings: Escherichia coli, fixed BLI concentration (μg/mL) in parentheses in label
[2] = test system: MEM-, imipenem/relebactam-, and ceftolozane/tazobactam-nonsusceptible P. aeruginosa; assay: MIC, broth microdilution; assay type: cell-based, Pseudomonas aeruginosa; settings: for CLSI MIC interpretation I (intermediate) / CLSI MIC interpretation R (resistant) / CLSI MIC interpretation S (susceptible): CLSI breakpoints, marked c: breakpoints for β-lactam alone; for MIC Range / MIC50 / MIC90: fixed concentration (μg/mL) in label; for MIC50 / MIC90: Pseudomonas aeruginosa; for MIC50: read-out: MIC50; for MIC90: read-out: MIC90
[3] = test system: 55 isolates of A. baumannii; assay: MIC, broth microdilution; assay type: cell-based, Acinetobacter baumannii; settings: Acinetobacter baumannii (55)
96 P. aeruginosa = assay: MIC, broth microdilution; assay type: cell-based, Pseudomonas aeruginosa; settings: Pseudomonas aeruginosa (96)
[4] = test system: serine-carbapenemase-producing isolates (Enterobacterales); assay: MIC, broth microdilution; assay type: cell-based; settings: Enterobacterales with serine-carbapenemases (80)
[5] = test system: MBL-producing isolates (Enterobacterales); assay: MIC, broth microdilution; assay type: cell-based; settings: for MIC90: read-out: MIC90
[6] = test system: 207 Enterobacterales including carbapenem-resistant isolates; assay: MIC, broth microdilution; assay type: cell-based
[7] = test system: MEM-nonsusceptible Enterobacterales with serine-carbapenemases; assay: MIC, broth microdilution; assay type: cell-based; settings: MEM-nonsusceptible Enterobacterales with serine-carbapenemases (58)
[8] = test system: E. coli CDC-149 (NDM-7), PBP3 mutations; assay: MIC, broth microdilution; assay type: cell-based; settings: Escherichia coli
[9] = test system: MEM-nonsusceptible Enterobacterales; assay: MIC, broth microdilution; assay type: cell-based; settings: MEM-nonsusceptible Enterobacterales (127), cefiderocol 126 isolates
[10] = test system: Enterobacter hormaechei ATCC BAA-2082; assay: MIC, reference strains of aerobic bacteria; assay type: cell-based; settings: ATCCBAA2082
[11] = test system: Enterococcus faecalis ATCC 29212; assay: MIC, reference strains of aerobic bacteria; assay type: cell-based; settings: ATCC29212
[12] = test system: Streptococcus salivarius GTC215; assay: MIC, reference strains of aerobic bacteria; assay type: cell-based
[13] = test system: Streptococcus mutans GTC218; assay: MIC, reference strains of aerobic bacteria; assay type: cell-based
[14] = test system: Pseudomonas aeruginosa ATCC 27853; assay: MIC, reference strains of aerobic bacteria; assay type: cell-based; settings: ATCC27853
[15] = cited from earlier work
[16] = test system: Proteus vulgaris ATCC 6380; assay: MIC, reference strains of aerobic bacteria; assay type: cell-based; settings: ATCC6380
[17] = test system: Streptococcus mitis GTC495 (ATCC 49456); assay: MIC, reference strains of aerobic bacteria; assay type: cell-based; settings: ATCC49456
[18] = test system: Enterobacter cloacae NBRC 13535 (ATCC 13047); assay: MIC, reference strains of aerobic bacteria; assay type: cell-based
[19] = test system: Staphylococcus epidermidis KUB4862/methicillin-resistant; assay: MIC, reference strains of aerobic bacteria; assay type: cell-based
[20] = test system: Staphylococcus aureus KUB4690/methicillin-resistant; assay: MIC, reference strains of aerobic bacteria; assay type: cell-based
[21] = test system: Streptococcus porcinus ATCC 12391; assay: MIC, reference strains of aerobic bacteria; assay type: cell-based; settings: ATCC12391
[22] = test system: Citrobacter freundii ATCC 8090; assay: MIC, reference strains of aerobic bacteria; assay type: cell-based; settings: ATCC8090
[23] = test system: Proteus mirabilis NBRC 3849 (NCTC 6197); assay: MIC, reference strains of aerobic bacteria; assay type: cell-based
[24] = test system: Providencia rettgeri ATCC 9250; assay: MIC, reference strains of aerobic bacteria; assay type: cell-based; settings: ATCC9250
[25] = test system: Streptococcus pyogenes ATCC 12344; assay: MIC, reference strains of aerobic bacteria; assay type: cell-based; settings: ATCC12344
[26] = Ceftolozane/tazobactam-nonsusceptible Pseudomonas aeruginosa (45)
[27] = Imipenem/relebactam-nonsusceptible Pseudomonas aeruginosa (43)
[28] = MEM-nonsusceptible Pseudomonas aeruginosa (76)
[29] = CLSI breakpoints, marked c: breakpoints for β-lactam alone
[30] = fixed concentration (μg/mL) in label
[31] = fixed concentration (μg/mL) in label, read-out: MIC50
[32] = fixed concentration (μg/mL) in label, read-out: MIC90
[33] = CLSI breakpoints, marked c: breakpoints for β-lactam alone, tigecycline: FDA breakpoints
[34] = Enterobacterales with metallo-carbapenemases (74), cefiderocol 73 isolates, CLSI breakpoints, marked c: breakpoints for β-lactam alone, tigecycline: FDA breakpoints
[35] = All Enterobacterales (207), cefiderocol 205 isolates, CLSI breakpoints, marked c: breakpoints for β-lactam alone, tigecycline: FDA breakpoints

Compound: CC(C)(O/N=C(\C(=O)N[C@@H]1C(=O)N2C(C(=O)[O-])=C(C[N+]3(CCNC(=O)c4ccc(O)c(O)c4Cl)CCCC3)CS[C@H]12)c1csc(N)n1)C(=O)O [FDC, cefiderocol]
- MIC [1]: 4 µg/mL (≈ 5.32 µM)
- CLSI MIC interpretation I (intermediate) [2, 26]: 0%
- CLSI MIC interpretation R (resistant) [2, 26]: 0%
- CLSI MIC interpretation S (susceptible) [2, 26]: 100%
- MIC Range [2, 26]: 0.25 to 4 µg/mL
- CLSI MIC interpretation I (intermediate) [2, 27]: 0%
- CLSI MIC interpretation R (resistant) [2, 27]: 0%
- CLSI MIC interpretation S (susceptible) [2, 27]: 100%
- MIC Range [2, 27]: 0.12 to 4 µg/mL
- CLSI MIC interpretation I (intermediate) [2, 28]: 0%
- CLSI MIC interpretation R (resistant) [2, 28]: 0%
- CLSI MIC interpretation S (susceptible) [2, 28]: 100%
- MIC Range [2, 28]: ≤0.06 to 4 µg/mL
- MIC50 [2, 26]: 0.5 µg/mL
- MIC90 [2, 26]: 2 µg/mL
- MIC50 [2, 27]: 0.5 µg/mL
- MIC90 [2, 27]: 2 µg/mL
- MIC50 [2, 28]: 0.5 µg/mL (≈ 0.665 µM)
- MIC90 [2, 28]: 2 µg/mL (≈ 2.66 µM)
- CLSI MIC interpretation I (intermediate) [3, 29]: 3.6%
- CLSI MIC interpretation R (resistant) [3, 29]: 1.8%
- CLSI MIC interpretation S (susceptible) [3, 29]: 94.5%
- MIC Range [3, 30]: ≤0.06 to 16 µg/mL
- MIC50 [3, 31]: 0.5 µg/mL (≈ 0.665 µM)
- MIC90 [3, 32]: 4 µg/mL (≈ 5.32 µM)
- CLSI MIC interpretation I (intermediate) (96 P. aeruginosa; [29]): 0%
- CLSI MIC interpretation R (resistant) (96 P. aeruginosa; [29]): 0%
- CLSI MIC interpretation S (susceptible) (96 P. aeruginosa; [29]): 100%
- MIC Range (96 P. aeruginosa; [30]): ≤0.06 to 4 µg/mL
- MIC50 (96 P. aeruginosa; [31]): 0.5 µg/mL (≈ 0.665 µM)
- MIC90 (96 P. aeruginosa; [32]): 2 µg/mL (≈ 2.66 µM)
- CLSI MIC interpretation I (intermediate) [4, 33]: 0%
- CLSI MIC interpretation R (resistant) [4, 33]: 0%
- CLSI MIC interpretation S (susceptible) [4, 33]: 100%
- MIC Range [4, 30]: ≤0.06 to 4 µg/mL
- MIC50 [4, 31]: 0.25 µg/mL (≈ 0.332 µM)
- MIC90 [4, 32]: 2 µg/mL (≈ 2.66 µM)
- CLSI MIC interpretation I (intermediate) [5, 34]: 5.5%
- CLSI MIC interpretation R (resistant) [5, 34]: 1.4%
- CLSI MIC interpretation S (susceptible) [5, 34]: 93.2%
- MIC50 ([5]; Enterobacterales with metallo-carbapenemases (74), cefiderocol 73 isolates, fixed concentration (μg/mL) in label, read-out: MIC50): 1 µg/mL (≈ 1.33 µM)
- MIC90 ([5]; Enterobacterales with metallo-carbapenemases (74), cefiderocol 73 isolates, fixed concentration (μg/mL) in label): 4 µg/mL (≈ 5.32 µM)
- MIC90 ([5]; MBL-producing isolates, comparators): ≤ 4 µg/mL
- CLSI MIC interpretation I (intermediate) [6, 35]: 2%
- CLSI MIC interpretation R (resistant) [6, 35]: 0.5%
- CLSI MIC interpretation S (susceptible) [6, 35]: 97.6%
- MIC50 ([6]; read-out: MIC50): 0.5 µg/mL (≈ 0.665 µM)
- MIC90 ([6]; read-out: MIC90): 2 µg/mL (≈ 2.66 µM)
- CLSI MIC interpretation I (intermediate) [7, 33]: 0%
- CLSI MIC interpretation R (resistant) [7, 33]: 0%
- CLSI MIC interpretation S (susceptible) [7, 33]: 100%
- MIC Range [7, 30]: ≤0.06 to 4 µg/mL
- MIC50 [7, 31]: 0.5 µg/mL (≈ 0.665 µM)
- MIC90 [7, 32]: 2 µg/mL (≈ 2.66 µM)
- MIC [8]: 16 µg/mL (≈ 21.3 µM)
- CLSI MIC interpretation I (intermediate) [9, 33]: 3.2%
- CLSI MIC interpretation R (resistant) [9, 33]: 0.8%
- CLSI MIC interpretation S (susceptible) [9, 33]: 96%
- MIC50 [9, 31]: 1 µg/mL (≈ 1.33 µM)
- MIC90 [9, 32]: 2 µg/mL (≈ 2.66 µM)

Compound: N[C@@H](C(=O)N1CC(Oc2ccc3c(c2C(=O)O)OB(O)CC3)C1)c1c[nH]cn1 [KSP-1007, 7-({1-[(2R)-2-amino-2-(1H-imidazol-4-yl)acetyl]azetidin-3-yl}oxy)-2-hydroxy-3,4-dihydro-2H-1,2-benzoxaborinine-8-carboxylic acid]
- MIC [10]: > 128 µg/mL
- MIC [11]: 64 µg/mL (≈ 166 µM)
- MIC [12]: 0.25 µg/mL (≈ 0.647 µM)
- MIC [13]: 8 µg/mL (≈ 20.7 µM)
- MIC [14]: > 128 µg/mL
- human plasma protein binding rate [15]: about 75%
- MIC [16]: > 128 µg/mL
- MIC [17]: 4 µg/mL (≈ 10.4 µM)
- MIC [18]: > 128 µg/mL
- MIC [19]: > 128 µg/mL
- MIC [20]: > 128 µg/mL
- MIC [21]: 2 µg/mL (≈ 5.18 µM)
- MIC [22]: 128 µg/mL (≈ 331 µM)
- MIC [23]: > 128 µg/mL
- MIC [24]: > 128 µg/mL
- MIC [25]: 4 µg/mL (≈ 10.4 µM)
